US4868299A, “Antibacterially active pyrido-benzothiazine derivatives with long-term action” (Mediolanum Farmaceutici Srl, priority 1986, dated 1989)
In brackets after ≈: the same amount, converted by molar mass. Where two headings read alike, the source gives them in different places.

What was measured:
Experiment in all cases: in-vitro antibacterial activity, MIC by agar dilution (multipoint inoculator)
Type in all cases: cell-based
Citrobacter 118 = conditions: for MIC: read-out: Minimum Inhibiting Concentration (MIC)
Description: (§1) The antibacterial activity of the compounds according to the invention was determined "in vitro" on pathogenic strains of recent clinical isolation by testing agar dilutions using a multipoint inoculator (Denley Techn. Ltd., England).
(§2) The culture medium used is isosensitest agar (Oxoid), in a quantity of 20 ml in a Petri capsule. The compounds to be tested were dissolved at various dilutions and incorporated in agar.
(§3) The bacterial inoculum, originating from an overnight broth and containing 10^5 colony-forming units per point, was inoculated by a multipoint inoculator. The bacterial growth was evaluated after 18 hours of incubation at 37° C.
(§4) For comparison purposes, the results relative to compound (XIII) and to nalidixic acid are also reported.

Citrobacter 120 = conditions: for MIC: read-out: Minimum Inhibiting Concentration (MIC)
Description: as §1, §2, §3, §4

Enterobacter 041 = conditions: for MIC: read-out: Minimum Inhibiting Concentration (MIC)
Description: as §1, §2, §3, §4

Enterobacter 2653 = conditions: for MIC: read-out: Minimum Inhibiting Concentration (MIC)
Description: as §1, §2, §3, §4

Escherichia 15 = conditions: 18 hours at 37° C, read-out: Minimum Inhibiting Concentration (MIC)
Description: as §1, §2, §3, §4

Escherichia 963 = conditions: for MIC: read-out: Minimum Inhibiting Concentration (MIC)
Description: as §1, §2, §3, §4

Klebsiella 4 = conditions: for MIC: read-out: Minimum Inhibiting Concentration (MIC)
Description: as §1, §2, §3, §4

Proteus 25 = conditions: for MIC: read-out: Minimum Inhibiting Concentration (MIC)
Description: as §1, §2, §3, §4

Proteus 966 = conditions: for MIC: read-out: Minimum Inhibiting Concentration (MIC)
Description: as §1, §2, §3, §4

Pseudomonas 19 = conditions: for MIC: read-out: Minimum Inhibiting Concentration (MIC)
Description: as §1, §2, §3, §4

Pseudomonas 22437 = conditions: 18 hours at 37° C; for MIC: read-out: Minimum Inhibiting Concentration (MIC)
Description: as §1, §2, §3, §4

Serratia 9 = conditions: for MIC: read-out: Minimum Inhibiting Concentration (MIC)
Description: as §1, §2, §3, §4

Staphylococcus 29 = conditions: for MIC: read-out: Minimum Inhibiting Concentration (MIC)
Description: as §1, §2, §3, §4

Staphylococcus 7 = conditions: for MIC: read-out: Minimum Inhibiting Concentration (MIC)
Description: as §1, §2, §3, §4

Serratia 10 = conditions: 18 hours at 37° C, read-out: Minimum Inhibiting Concentration (MIC)
Description: as §1, §2, §3, §4

[1] = Citrobacter 118, 18 hours at 37° C
[2] = Citrobacter 120, 18 hours at 37° C
[3] = Enterobacter 041, 18 hours at 37° C
[4] = Enterobacter 2653, 18 hours at 37° C
[5] = Escherichia 963, 18 hours at 37° C
[6] = Klebsiella 4, 18 hours at 37° C
[7] = Pseudomonas 19, 18 hours at 37° C
[8] = Staphylococcus 29, 18 hours at 37° C
[9] = Staphylococcus 7, 18 hours at 37° C

## CCn1cc(C(=O)O)c(=O)c2ccc(C)nc21 [NALIDIXIC ACID, nalidixic acid, reference compound]
Citrobacter 118; Citrobacter, 118, 18 h
  MIC: 12.5 µg/mL (≈ 53.8 µM)
Citrobacter 120; Citrobacter, 120, 18 h
  MIC: 12.5 µg/mL (≈ 53.8 µM)
Enterobacter 041; Enterobacter, 041, 18 h
  MIC: 3.12 µg/mL (≈ 13.4 µM)
Enterobacter 2653; Enterobacter, 2653, 18 h
  MIC: 1.56 µg/mL (≈ 6.72 µM)
Escherichia 15
  MIC: 3.12 µg/mL (≈ 13.4 µM)
Escherichia 963; Escherichia, 963, 18 h
  MIC: > 25 µg/mL
Klebsiella 4; Klebsiella, 4, 18 h
  MIC: 3.12 µg/mL (≈ 13.4 µM)
Proteus 25; 18 h
  MIC: 12.5 µg/mL (≈ 53.8 µM)
Proteus 966; 18 h
  MIC: > 25 µg/mL
Pseudomonas 19; Pseudomonas, 19, 18 h
  MIC: > 25 µg/mL
Pseudomonas 22437
  MIC: > 25 µg/mL
Serratia 9; Serratia, 9, 18 h
  MIC: > 25 µg/mL
Staphylococcus 29; Staphylococcus, 29, 18 h
  MIC: > 25 µg/mL
Staphylococcus 7; Staphylococcus, 7, 18 h
  MIC: > 25 µg/mL

## CC1Cn2cc(C(=O)O)c(=O)c3cc(F)c(Cl)c(c32)S1 (stereo not drawn) [reference compound]
Citrobacter 118; [1]
  MIC: 1 µg/mL (≈ 3.19 µM)
Citrobacter 120; [2]
  MIC: > 32 µg/mL
Enterobacter 041; [3]
  MIC: 0.12 µg/mL (≈ 0.382 µM)
Enterobacter 2653; [4]
  MIC: 0.12 µg/mL (≈ 0.382 µM)
Escherichia 15
  MIC: 0.25 µg/mL (≈ 0.797 µM)
Escherichia 963; [5]
  MIC: 16 µg/mL (≈ 51 µM)
Klebsiella 4; [6]
  MIC: 0.12 µg/mL (≈ 0.382 µM)
Proteus 25; Proteus 25, 18 hours at 37° C
  MIC: > 32 µg/mL
Proteus 966; Proteus 966, 18 hours at 37° C
  MIC: > 32 µg/mL
Pseudomonas 19; [7]
  MIC: > 32 µg/mL
Pseudomonas 22437
  MIC: > 32 µg/mL
Serratia 10
  MIC: 0.25 µg/mL (≈ 0.797 µM)
Serratia 9; Serratia 9, 18 hours at 37° C
  MIC: > 32 µg/mL
Staphylococcus 29; [8]
  MIC: 0.12 µg/mL (≈ 0.382 µM)
Staphylococcus 7; [9]
  MIC: 0.12 µg/mL (≈ 0.382 µM)

## ethyl 9-fluoro-10-chloro-2-methyl-7-oxo-2,3-dihydro-7H-pyrido[1,2,3-de][1,4]benzothiazine-1-sulphoxide-6-carboxylate [(II)]
Citrobacter 118; [1]
  Minimum Inhibiting Concentration (MIC): 0.5 µg/mL
Citrobacter 120; [2]
  Minimum Inhibiting Concentration (MIC): 0.5 µg/mL
Enterobacter 041; [3]
  Minimum Inhibiting Concentration (MIC): 0.12 µg/mL
Enterobacter 2653; [4]
  Minimum Inhibiting Concentration (MIC): 0.25 µg/mL
Escherichia 963; [5]
  Minimum Inhibiting Concentration (MIC): 2 µg/mL
Klebsiella 4; [6]
  Minimum Inhibiting Concentration (MIC): 0.25 µg/mL
Proteus 25; Proteus 25, 18 hours at 37° C
  Minimum Inhibiting Concentration (MIC): 4 µg/mL
Proteus 966; Proteus 966, 18 hours at 37° C
  Minimum Inhibiting Concentration (MIC): 4 µg/mL
Pseudomonas 19; [7]
  Minimum Inhibiting Concentration (MIC): 16 µg/mL
Pseudomonas 22437
  Minimum Inhibiting Concentration (MIC): 16 µg/mL
Serratia 9; Serratia 9, 18 hours at 37° C
  Minimum Inhibiting Concentration (MIC): 8 µg/mL
Staphylococcus 29; [8]
  Minimum Inhibiting Concentration (MIC): 1 µg/mL
Staphylococcus 7; [9]
  Minimum Inhibiting Concentration (MIC): 1 µg/mL
